Patent US20230338463A1, “ICD PEPTIDE AND USE THEREOF FOR HAVING CYTOTOXIC ACTIVITY ON CANCER CELLS” (NATIONAL TSING HUA UNIVERSITY, priority 2022, published 2023)
Non-standard residues stand in square brackets, D forms with d. Residues, ends and D or L forms follow the SMILES beside them. 2Nal = N[C@@H](Cc1ccc2ccccc2c1)C(=O)O

Experiments:
[1] = test system: CGNHC9 cells (oral squamous cell carcinoma); details: human, 24 h
Description: (§1) Three non-small cell lung cancer cell lines (H1975, A549, PC9) and two oral cancer cell lines (CGNHC9, OECM-1) were used in the present invention. H1975 is the non-small cell lung carcinoma tissue, A549 is the adenocarcinomic alveolar basal epithelial cells and PC9 is the non-small cell lung cancer with EGFR mutation. CGNHC9 and OECM-1 cell lines refer to oral squamous cell carcinoma and gingival epidermoid carcinoma respectively. The abovemetioned cell lines were derived from human origin and being cultured in the humidified incubator containing 5% CO2 at 37° C. CGNHC9 cell line was cultured in Dulbecco’s modified Eagle’s medium (GIBCO Life Technologies Corporation, NY, USA) with 10% fetal bovine serum (FBS), 2 mM L-glutamine and 1% penicillin/ streptomycin and Roswell Park Memorial Institute 1640 (RPMI 1640, GIBCO Life Technologies Corporation, NY, USA) medium with 10% fetal bovine serum (FBS), 2 mM L-glutamine and 1% penicillin/ streptomycin was used as the culture medium for the rest of the cell lines.
(§2) The anticancer activity of ICD peptides include, not limited, SEQ ID NO: 1 and its derivative peptides (SEQ ID NO: 2, SEQ ID NO: 3, SEQ ID NO: 4, and SEQ ID NO: 5) was using the 3-(4,5-Dimethyl-2-thiazolyl)-2,5-diphenyl-2H-tetrazolium bromide (MTT, Sigma Aldrich, St. Louis, MO, USA) colorimetric assay for cell viability test. The cells include, not limited, H1975, A549, PC9, CGNHC9, OECM-1, MN-11 and HFW cells/cell lines.
(§3) The cells were seeded in the 96-well plate at 5000 cells/well under the environment of humidified 5% CO2 and the temperature of 37° C. for 24 hours. The medium was removed from the well before the fresh medium containing different concentrations of ICD peptides was added and incubated for 24 hours. Medium with PBS solution was used as control group. All ICD peptides were diluted serially from 100 µM to 0.78 µM in ddH2O before adding in the medium. After 24 hours of ICD peptide treatment, fresh medium with 10% MTT solution (5 mg/mL) was incubated for additional 4 hours in advance of dissolving the formazan crystal in 100 µL DMSO (Dimethyl sulfoxide, Sigma Aldrich) solution. The calculation of cell survival rate was completed by measuring the absorbance at 570 nm using microplate reader (TECAN Sunrise ELISA Reader).
(§4) The cell survival was calculated from the treated cells relative to the control (100% viable cells) using the mean of three independent experiments and expressed as a 50% inhibitory concentration (IC50).
(§5) The percentage of cell viability was calculated using the following formula: […]
(§6) The half inhibition concentration (IC50) is the concentration required by the drug to reach fifty percent inhibition. In one embodiment, the SEQ ID NO: 1 and its derivative peptides (SEQ ID NO:2, SEQ ID NO:3, SEQ ID NO:4, SEQ ID NO: 5) was used for IC50 test via MTT colorimetric assay.

[2] = test system: OECM-1 cells (gingival epidermoid carcinoma); details: human, 24 h
Description: as §1, §2, §3, §4, §5, §6

[3] = test system: PC9 cells (non-small cell lung cancer with EGFR mutation); details: human, 24 h
Description: as §1, §2, §3, §4, §5, §6

MN-11 cells [4] = test: DCFDA cellular ROS detection, MN-11; format: cell-based, murine; details: MN-11, 2 × IC50, 2-hour treatment
Protocol: However, MN-11 cells were seeded at the density of 25,000 cells/well in the 96-well black plate and allowed to adhere for 24 hours. Cells were washed with a 100 µL/well of PBS to remove the RPMI 1640 medium, and incubated with 100 µL of the 25 µM DCFDA solution for 45 minutes at 37° C. in the dark condition. 100 µL/ well of PBS buffer was washed again for the removal of 25 µM DCFDA solution. The MN-11 cells were treated with Nal-P-113, Bip-P-113 and Dip-P-113 at 2× IC50 for 2 hours. Cells incubated with DMEM without phenol red was used as negative control, and the positive control was tertbutyl hydroperoxide (TBHP) diluted in the 1x Supplemented Buffer. The fluorescence intensity of cellular ROS was determined to an excitation wavelength of 485 nm and an emission wavelength of 535 nm on the Wallac VICTOR 3 Multilabel plate reader (PerkinElmer, Shelton, CT, USA).

MN-11 cells [5] = test: Luciferin-luciferase extracellular ATP, MN-11; format: cell-based, murine; details: MN-11, 2 × IC50, peak at 0.5-hour
Protocol: On the other hand, MN-11 cells were seeded at the density of 25,000 cells/ well in the 96 well plate and allowed to adhere for 24 hours. Cells were treated with Nal-P-113, Bip-P-113 and Dip-P-113 at 2× IC50 for 0.5, 1, 1.5, and 2 hours. Untreated cells served as the control group. After being treated for different time points (0.5, 1, 1.5, and 2 hours), the supernatant of cells was analyzed using the ENLITEN ATP luciferase assay kit (Promega, Madison, WI, USA). The level of the extracellular ATP chemiluminescence was measured at 560 nm using the Wallac VICTOR 3 Multilabel plate reader (PerkinElmer, Shelton, CT, USA).
ATP release from MN-11 cells were measured using the luciferin-luciferase assay after peptide (2 × IC50) treatment (FIGS. 6B-6D). Nal-P-113 and Dip-P-113 reached the relative light unit (~ 11,000 RLU) peak at 0.5-hour, and Bip-P-113 reached the highest peak at 1 hour (~ 13,000 RLU).

CC(=O)N[C@@H](C)C(=O)N[C@@H](CCCCN)C(=O)N[C@@H](CCCNC(=N)N)C(=O)N[C@@H](Cc1ccc2ccccc2c1)C(=O)N[C@@H](Cc1ccc2ccccc2c1)C(=O)NCC(=O)N[C@@H](Cc1ccc(O)cc1)C(=O)N[C@@H](CCCCN)C(=O)N[C@@H](CCCNC(=N)N)C(=O)N[C@@H](CCCCN)C(=O)N[C@@H](Cc1ccccc1)C(=O)N[C@@H](Cc1ccc2ccccc2c1)C(N)=O [SEQ ID NO:3, Ac-AKR Nal Nal GYKRKFNal-NH2] (Ac-AKR[2Nal][2Nal]GYKRKF[2Nal]-NH2) was tested, and the cell viability percentage [1] was “lower than 20%”, the cell viability percentage [2] was “lower than 20%” and the cell viability percentage [3] was “lower than 20%”. The “fluorescence intensity of cellular ROS (ROS production)” value (MN-11 cells [4]) was “did not change” and the “ATP release, relative light unit peak” value (MN-11 cells [5]) was ~ 11,000 RLU.
